Measured values as given in PMC7925390 (Frontiers in Microbiology, 2021).
Read-outs that look alike come from different tables or passages of the source. Values belong to the molecule of their own block, whether it stands above or below them.

Assays:
[1] = target: T1, TsPYK (Thermoanaerobacterium saccharolyticum, UniProt I3VV25); test: Kapp–PEP versus effector concentration, lactate dehydrogenase coupled assay; assay type: biochemical; settings: 10 mM ADP, 15 mM MgCl2, 30 °C
T1 construct: gene Tsac_1363; full length with extra-C domain; N-terminal 6XHis tag kept (6XHis-MBP-SUMO tag in later expression); expressed in E. coli FF50 / QTF60 (pykA pykF deleted); homotetramer
T1 sequence (I3VV25 1-583): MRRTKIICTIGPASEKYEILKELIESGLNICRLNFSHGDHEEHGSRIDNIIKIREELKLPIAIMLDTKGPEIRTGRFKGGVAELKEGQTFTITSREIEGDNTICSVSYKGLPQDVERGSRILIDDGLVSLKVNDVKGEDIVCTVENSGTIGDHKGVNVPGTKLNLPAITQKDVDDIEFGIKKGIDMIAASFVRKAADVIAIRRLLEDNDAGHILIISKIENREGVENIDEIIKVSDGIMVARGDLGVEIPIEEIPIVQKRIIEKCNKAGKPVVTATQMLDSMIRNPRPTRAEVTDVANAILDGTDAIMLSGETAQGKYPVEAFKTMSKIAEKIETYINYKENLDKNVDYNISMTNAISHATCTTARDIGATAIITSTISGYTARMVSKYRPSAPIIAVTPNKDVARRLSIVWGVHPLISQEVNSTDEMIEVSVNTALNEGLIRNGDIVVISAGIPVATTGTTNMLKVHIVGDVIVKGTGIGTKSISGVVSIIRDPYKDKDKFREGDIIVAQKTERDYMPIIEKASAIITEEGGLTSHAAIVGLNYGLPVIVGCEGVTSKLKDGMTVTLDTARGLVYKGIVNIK

[2] = target: T2, C. bescii PYK (Caldicellulosiruptor bescii, UniProt A0ABY1S964); test: as above; assay type: biochemical; settings: allosteric activator; 10 mM ADP, 15 mM MgCl2, 30 °C
T2 construct: gene SAMN05216240_1829; full length with extra-C domain; N-terminal 6XHis-MBP-SUMO tag kept; expressed in E. coli QTF60

[3] = target: T3, E. coli Type A (Escherichia coli, UniProt P21599); test: as above; assay type: biochemical; settings: allosteric activator; 10 mM ADP, 15 mM MgCl2, 30 °C
T3 construct: gene pykA; full length; no extra-C domain; N-terminal 6XHis-MBP-SUMO tag kept; expressed in E. coli QTF60

[4] = target: T1, TsPYK; test: Kapp–PEP versus effector concentration, lactate dehydrogenase coupled assay, linkage fit; assay type: biochemical; settings: Kix in absence of PEP, 10 mM ADP, 15 mM MgCl2, 30 °C
Excerpt: Kapp–PEP versus effector concentration, lactate dehydrogenase coupled assay, linkage fit on TsPYK

[5] = target: T4, TsPYK extra-C domain truncated (Thermoanaerobacterium saccharolyticum, UniProt I3VV25); test: Kapp–PEP versus effector concentration, lactate dehydrogenase coupled assay; assay type: biochemical; settings: allosteric activator; 10 mM ADP, 15 mM MgCl2, 30 °C
T4 construct: gene Tsac_1363; N-terminal 6XHis-MBP-SUMO tag kept; expressed in E. coli QTF60

[6] = target: T5, E. coli Type F (Escherichia coli, UniProt P0AD61); test: lactate dehydrogenase coupled NADH assay, A340, Hill fit; assay type: biochemical; settings: 10 mM ADP, 15 mM MgCl2, 30 °C; no effector
T5 construct: gene pykF; full length; no extra-C domain; N-terminal 6XHis-MBP-SUMO tag kept; expressed in E. coli QTF60

[7] = target: T3, E. coli Type A; test: as above; assay type: biochemical; settings: 10 mM ADP, 15 mM MgCl2, 30 °C; no effector
[8] = target: T2, C. bescii PYK; test: as above; assay type: biochemical; settings: 10 mM ADP, 15 mM MgCl2, 30 °C; no effector
[9] = target: T4, TsPYK extra-C domain truncated; test: as above; assay type: biochemical; settings: 10 mM ADP, 15 mM MgCl2, 30 °C; no effector
[10] = substrate: C=C(OP(=O)(O)O)C(=O)O; test: as above; assay type: biochemical, Thermoanaerobacterium saccharolyticum; settings: 10 mM ADP, 15 mM MgCl2, 195 mM K+, 80 mM Na+, 50 mM HEPES, 30 °C, no effector, ± sign lost in table text
Excerpt: lactate dehydrogenase coupled NADH assay, A340, Hill fit on TsPYK

T2 sequence (A0ABY1S964 entry or part of it): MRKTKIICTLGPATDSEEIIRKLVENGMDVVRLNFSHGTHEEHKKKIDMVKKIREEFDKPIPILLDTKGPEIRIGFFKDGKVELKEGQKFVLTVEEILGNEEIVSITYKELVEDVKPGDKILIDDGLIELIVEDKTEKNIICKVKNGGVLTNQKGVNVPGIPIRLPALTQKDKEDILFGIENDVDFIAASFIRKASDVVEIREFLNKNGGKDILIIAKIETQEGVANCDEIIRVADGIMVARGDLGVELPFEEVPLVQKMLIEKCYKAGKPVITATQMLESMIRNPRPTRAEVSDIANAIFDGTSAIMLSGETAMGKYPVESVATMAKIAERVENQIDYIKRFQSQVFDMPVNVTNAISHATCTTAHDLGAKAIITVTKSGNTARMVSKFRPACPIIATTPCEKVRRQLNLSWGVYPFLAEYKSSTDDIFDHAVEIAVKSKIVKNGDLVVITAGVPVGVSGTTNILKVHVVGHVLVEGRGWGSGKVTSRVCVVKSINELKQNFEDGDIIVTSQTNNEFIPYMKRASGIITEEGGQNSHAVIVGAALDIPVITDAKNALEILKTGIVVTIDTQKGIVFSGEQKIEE
T3 sequence (P21599 whole entry): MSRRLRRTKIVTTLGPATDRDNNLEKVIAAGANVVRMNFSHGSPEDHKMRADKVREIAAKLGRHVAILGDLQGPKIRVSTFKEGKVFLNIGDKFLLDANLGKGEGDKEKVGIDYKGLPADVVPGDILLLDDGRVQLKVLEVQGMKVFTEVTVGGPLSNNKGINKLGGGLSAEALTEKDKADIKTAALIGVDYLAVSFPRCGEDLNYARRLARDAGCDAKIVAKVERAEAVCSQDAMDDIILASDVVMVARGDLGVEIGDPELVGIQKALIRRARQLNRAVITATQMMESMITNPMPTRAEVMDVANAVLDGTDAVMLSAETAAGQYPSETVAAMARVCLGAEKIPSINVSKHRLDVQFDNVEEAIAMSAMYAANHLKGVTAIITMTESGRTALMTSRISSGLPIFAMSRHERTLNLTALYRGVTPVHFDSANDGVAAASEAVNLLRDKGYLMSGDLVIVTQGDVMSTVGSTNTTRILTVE
T5 sequence (P0AD61 whole entry): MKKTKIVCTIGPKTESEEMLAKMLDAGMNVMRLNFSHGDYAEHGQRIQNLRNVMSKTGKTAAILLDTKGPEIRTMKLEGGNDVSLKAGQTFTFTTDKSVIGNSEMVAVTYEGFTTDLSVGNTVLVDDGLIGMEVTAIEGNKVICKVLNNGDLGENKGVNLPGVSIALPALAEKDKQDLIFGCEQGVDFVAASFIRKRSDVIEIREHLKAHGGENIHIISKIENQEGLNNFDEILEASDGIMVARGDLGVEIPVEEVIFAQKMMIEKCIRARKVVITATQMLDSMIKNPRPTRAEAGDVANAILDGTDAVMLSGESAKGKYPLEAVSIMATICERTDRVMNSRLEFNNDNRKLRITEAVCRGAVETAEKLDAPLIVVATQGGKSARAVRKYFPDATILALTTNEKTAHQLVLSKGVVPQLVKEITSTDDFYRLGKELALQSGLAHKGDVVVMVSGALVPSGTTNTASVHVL

Molecule: Nc1ncnc2c1ncn2[C@H]1C[C@H](O)[C@@H](COP(=O)(O)O)O1 [2-deoxyadenonsine-5′MP]
Kapp-PEP shift ([1]; allosteric activator): generated a response very similar to AMP (slightly reduced binding)

Kd ([4]; allosteric activator, ± sign lost in table text, read-out: Kix-AMP): 90 ± 60 µM
Molecule: Nc1ncnc2c1ncn2[C@@H]1O[C@H](COP(=O)(O)O)[C@@H](O)[C@H]1O [AMP]
Kapp-PEP shift [2]: the isozyme from C. bescii were inhibited by IMP and activated by AMP
Kapp-PEP shift [3]: the E. coli type A isozyme was activated by both AMP and IMP
Kapp-PEP shift [5]: Activation by AMP was not influenced by the removal of the extra-C domain.

Kd ([4]; allosteric inhibitor, ± sign lost in table text (printed 11), read-out: Kix-GMP): 1000 ± 1000 µM
Molecule: Nc1nc2c(ncn2[C@@H]2O[C@H](COP(=O)(O)O)[C@@H](O)[C@H]2O)c(=O)[nH]1 [GMP]

Molecule: C=C(OP(=O)(O)O)C(=O)O [PEP]
Kapp-PEP [6]: The response of three bacterial PYK isozymes to AMP and IMP.
Kapp-PEP [7]: The response of three bacterial PYK isozymes to AMP and IMP.
Kapp-PEP [8]: The response of three bacterial PYK isozymes to AMP and IMP.
Kapp-PEP [9]: A comparison of responses to IMP and AMP for the full length TsPYK

Kd ([4]; allosteric activator, ± sign lost in table text (printed 1110), read-out: Kix-R5P): 11000 ± 10000 µM
Molecule: O=P(O)(O)OC[C@H]1OC(O)[C@H](O)[C@@H]1O (some centres unmarked) [R5P]

Molecule: O=P(O)(O)OC[C@H]1OC(O)(CO)[C@@H](O)[C@@H]1O (some centres unmarked) [fructose-6-phosphate]
Kapp-PEP shift ([1]; allosteric inhibitor): glyceraldehyde 3-phosphate, fructose-6-phosphate, IMP or GMP all caused reduced affinity for PEP

Molecule: O=C[C@H](O)COP(=O)(O)O [glyceraldehyde 3-phosphate]
Kapp-PEP shift ([1]; allosteric inhibitor): glyceraldehyde 3-phosphate, fructose-6-phosphate, IMP or GMP all caused reduced affinity for PEP

B1: TsPYK (Thermoanaerobacterium saccharolyticum JW/SL-YS485) (protein)
chain: T1 sequence (I3VV25 1-583)
notes: full length with extra-C domain; N-terminal 6XHis tag kept (6XHis-MBP-SUMO tag in later expression); expressed in E. coli FF50 / QTF60 (pykA pykF deleted); homotetramer
K0.5 [10]: 0.63 ± 0.03 mM
